Patent US9932479B2, “Dyes and compositions, and processes for using same in analysis of protein aggregation and other applications” (Enzo Biochem, Inc., priority 2009, dated 2018)

What was measured:
[1] = biological target: T1, recombinant human alpha-synuclein (ASN) aggregate (Homo sapiens, UniProt P37840); experiment: Fluorescence excitation and emission spectra of dye in the presence of aggregated alpha-synuclein; format: binding; details: for In the presence of aggregate: Emission wavelength / In the presence of aggregate: Excitation wavelength: 1 μM aggregated ASN, 50 mM Tris-HCl, pH 7.8, 10 μM dye
T1 construct: purchased Sigma-Aldrich
Description: (§1) Fluorescent readings were carried out in 50 mM Tris-HCl, pH 7.8 using 10 μM dye. […] Fluorescence excitation and emission spectra were collected on a Cary Eclipse fluorescence spectrophotometer (Varian, Australia). Fluorescence spectra were measured with excitation and emission slit widths set to 5 nm, and at a constant PMT voltage. Spectroscopic measurements were performed in standard quartz cells. All measurements were made at the respective excitation maxima of each dye. All measurements were carried out at room temperature.

[2] = Fluorescence excitation and emission spectra of dye freely dissolved in buffer; format: physicochemical; details: 50 mM Tris-HCl, pH 7.8, 10 μM dye, room temperature
Description: as §1

[3] = system: Goat anti-mouse IgG; experiment: High-throughput protein formulation optimization: effect of excipients on IgG aggregation at 50° C., S-25/Tol3 readout; format: biochemical; details: 50° C. for 6 hours
Description: (A). Goat anti-mouse IgG was diluted in sodium acetate, pH 4.5, then mixed with the excipients shown in FIG. 10 A giving a final concentration of 400 mM sodium acetate, 18 μM IgG and the excipient concentration shown in the Table 2. This mixture was heated to 50° C. for 6 hours. At this time the protein solution was diluted two-fold to give a final concentration of 50 mM Histidine buffer, originally pH 7, 2.5 μM S-25, 2.5 μM Tol3 and 9 μM IgG. After 30 minutes of incubation on the shaker, the fluorescence intensity was recorded on the plate reader (FLUOstar Optima). The fluorescence intensity from each individual excipient was then compared with that without any excipient (Value set as 1.0) as shown on the top of the corresponding excipient bar in FIG. 12 A.
(B). In the control plate, the IgG was added to the plate, at the same volume and concentration given above (Example 17A) in 400 mM Sodium Acetate. This mixture was heated to 50° C. for 6 hours, as described above. After 6 hours, the excipient was added followed by S-25 and Tol3 to give all the final concentrations as shown in Example 17A. Similar to the sample plate, the fluorescence intensity from individual excipients was also compared with that from water without any excipient (Values set as 1.0) to obtain the relative fluorescent intensity as shown on the top of the corresponding excipient bar in FIG. 12B.
(C). […]

[4] = system: goat-anti-mouse IgG aggregate; experiment: Fluorescence enhancement (aggregate/native IgG) in the presence of excipients; format: binding; details: for Fluorescence enhancement (aggregate/native IgG): 2.8 μM IgG, 0.625 μM dye; for Fluorescence enhancement (aggregate/native IgG), Average: Average over all excipient conditions
Description: IgG aggregate was prepared by adjusting 5.83 mg/ml of purified goat-anti-mouse IgG (H&L, Pel Freez, Rogers, Ark.) to pH 2.7 using HCl and incubating at 22° C. for 24 hours. The assay was performed using 2.8 μM IgG, either native or aggregated, and a dye concentration of 0.625 μM. The protein and dye were mixed together for 15 minutes at 22° C., then this was further incubated in the presence of the excipients shown in the table. The fluorescence intensity of S-25, Tol3 and Y2150 were determined with a FLUOstar OPTIMA plate reader (BMG LABTECH) at excitation wavelength of 550 nm and emission wavelength of 610 nm; while the fluorescence intensity for Thioflavin-T was determined using a SpectraMAX GeminiXS (Molecular device, with Softmax Pro 7.0) using an excitation wavelength of 435 nm and emission wavelength of 495 nm. The fluorescence enhancement (aggregate/native IgG) is shown.

## CCN(CC)c1ccc(/C=C/c2cc[n+](Cc3ccccc3C[n+]3ccc(/C=C/c4ccc(N(CC)CC)cc4)cc3)cc2)cc1.[Br-].[Br-] [Yat 2148]
[1]
  In the presence of aggregate: Emission wavelength: 625 nm
  In the presence of aggregate: Excitation wavelength: 553 nm

## CCN(CC)c1ccc(/C=C/c2cc[n+](CCCC[n+]3ccc(/C=C/c4ccc(N(CC)CC)cc4)cc3)cc2)cc1.[I-].[I-] [Yat 2134]
[1]
  In the presence of aggregate: Emission wavelength: 613 nm
  In the presence of aggregate: Excitation wavelength: 535 nm
[2]
  Dye freely dissolved in buffer: Emission wavelength: 620 nm
  Dye freely dissolved in buffer: Excitation wavelength: 500 nm

## Triton X-100
[3]; 0.2% Triton X-100
  Effect on aggregation of IgG (fluorescence ratio sample plate / control plate): induce aggregation of IgG

## Cc1ccc2c(c1)sc(-c1ccc(N(C)C)cc1)[n+]2C.[Cl-] [Thioflavin-T, Thioflavin T, reference compound]
[4]; Ammonium Sulfate, 10 mM
  Fluorescence enhancement (aggregate/native IgG): 2.8 fold
[4]; Ammonium Sulfate, 100 mM
  Fluorescence enhancement (aggregate/native IgG): 2.6 fold
[4]; Ammonium Sulfate, 300 mM
  Fluorescence enhancement (aggregate/native IgG): 1.4 fold
[4]; Arginine, 200 mM
  Fluorescence enhancement (aggregate/native IgG): 1.4 fold
[4]; Arginine, 500 mM
  Fluorescence enhancement (aggregate/native IgG): 2.0 fold
[4]; Ascoric Acid, 1 mM
  Fluorescence enhancement (aggregate/native IgG): 1.5 fold
[4]
  Fluorescence enhancement (aggregate/native IgG), Average: 2.9 fold
[4]; Calcium Chloride, 10 mM
  Fluorescence enhancement (aggregate/native IgG): 3.1 fold
[4]; Calcium Chloride, 50 mM
  Fluorescence enhancement (aggregate/native IgG): 1.5 fold
[4]; Calcium Chloride, 200 mM
  Fluorescence enhancement (aggregate/native IgG): 1.7 fold
[4]; DTT, 1 mM
  Fluorescence enhancement (aggregate/native IgG): 1.6 fold
[4]; Glycine, 0.5%
  Fluorescence enhancement (aggregate/native IgG): 3.1 fold
[4]; Glycine, 2%
  Fluorescence enhancement (aggregate/native IgG): 3.2 fold
[4]; Lactose, 100 mM
  Fluorescence enhancement (aggregate/native IgG): 1.2 fold
[4]; Lactose, 300 mM
  Fluorescence enhancement (aggregate/native IgG): 1.4 fold
[4]; Mannitol, 100 mM
  Fluorescence enhancement (aggregate/native IgG): 3.1 fold
[4]; Mannitol, 300 mM
  Fluorescence enhancement (aggregate/native IgG): 3.7 fold
[4]; Mannitol, 600 mM
  Fluorescence enhancement (aggregate/native IgG): 1.8 fold
[4]; Sodium Chloride, 10 mM
  Fluorescence enhancement (aggregate/native IgG): 1.6 fold
[4]; Sodium Chloride, 100 mM
  Fluorescence enhancement (aggregate/native IgG): 1.3 fold
[4]; Sodium Chloride, 1000 mM
  Fluorescence enhancement (aggregate/native IgG): 2.7 fold
[4]; Sorbitol, 100 mM
  Fluorescence enhancement (aggregate/native IgG): 3.0 fold
[4]; Sorbitol, 300 mM
  Fluorescence enhancement (aggregate/native IgG): 1.9 fold
[4]; Sorbitol, 600 mM
  Fluorescence enhancement (aggregate/native IgG): 3.6 fold
[4]; Trehalose, 100 mM
  Fluorescence enhancement (aggregate/native IgG): 2.2 fold
[4]; Trehalose, 300 mM
  Fluorescence enhancement (aggregate/native IgG): 0.2 fold
[4]; Trehalose, 600 mM
  Fluorescence enhancement (aggregate/native IgG): 4.8 fold
[4]; Tween 20, 0.01%
  Fluorescence enhancement (aggregate/native IgG): 4.6 fold
[4]; Tween 20, 0.2%
  Fluorescence enhancement (aggregate/native IgG): 2.6 fold
[4]; X100, 0.01%
  Fluorescence enhancement (aggregate/native IgG): 5.3 fold
[4]; X100, 0.2%
  Fluorescence enhancement (aggregate/native IgG): 6.6 fold
[4]; X100, 1%
  Fluorescence enhancement (aggregate/native IgG): 3.4 fold
[1]
  In the presence of aggregate: Emission wavelength: 480 nm
  In the presence of aggregate: Excitation wavelength: 447 nm
[1]; as seen in Table 1
  Stokes shift: 23 nm
[2]
  Dye freely dissolved in buffer: Emission wavelength: 472 nm
  Dye freely dissolved in buffer: Excitation wavelength: 400 nm

## CN(C)c1ccc(/C=C/c2cc[n+](Cc3ccccc3C[n+]3ccc(/C=C/c4ccc(N(C)C)cc4)cc3)cc2)cc1.[Br-].[Br-] [Dye S43]
[1]
  In the presence of aggregate: Emission wavelength: 623 nm
  In the presence of aggregate: Excitation wavelength: 550 nm

## CCN(CC)c1ccc(/C=C/c2cc[n+](CCOCC[n+]3ccc(/C=C/c4ccc(N(CC)CC)cc4)cc3)cc2)cc1.[I-].[I-] [Yat 2149]
[1]
  In the presence of aggregate: Emission wavelength: 617 nm
  In the presence of aggregate: Excitation wavelength: 534 nm
[2]
  Dye freely dissolved in buffer: Emission wavelength: 614 nm
  Dye freely dissolved in buffer: Excitation wavelength: 502 nm

## OC[C@H]1O[C@H](O[C@H]2O[C@H](CO)[C@@H](O)[C@H](O)[C@H]2O)[C@H](O)[C@@H](O)[C@@H]1O [Trehalose]
[3]; 100 mM Trehalose
  Effect on aggregation of IgG (fluorescence ratio sample plate / control plate): inhibit or slow down aggregation of IgG

## CCN(CC)c1ccc(/C=C/c2cc[n+](CCCCCCCCCC[n+]3ccc(/C=C/c4ccc(N(CC)CC)cc4)c(C)c3)cc2C)cc1 [Yat 2150]
[4]; Ammonium Sulfate, 10 mM
  Fluorescence enhancement (aggregate/native IgG): 12.4 fold
[4]; Ammonium Sulfate, 100 mM
  Fluorescence enhancement (aggregate/native IgG): 12.5 fold
[4]; Ammonium Sulfate, 300 mM
  Fluorescence enhancement (aggregate/native IgG): 14.6 fold
[4]; Arginine, 200 mM
  Fluorescence enhancement (aggregate/native IgG): 14.4 fold
[4]; Arginine, 500 mM
  Fluorescence enhancement (aggregate/native IgG): 14.3 fold
[4]; Ascoric Acid, 1 mM
  Fluorescence enhancement (aggregate/native IgG): 14.5 fold
[4]
  Fluorescence enhancement (aggregate/native IgG), Average: 14.8 fold
[4]; Calcium Chloride, 10 mM
  Fluorescence enhancement (aggregate/native IgG): 12.4 fold
[4]; Calcium Chloride, 50 mM
  Fluorescence enhancement (aggregate/native IgG): 14.7 fold
[4]; Calcium Chloride, 200 mM
  Fluorescence enhancement (aggregate/native IgG): 13.9 fold
[4]; DTT, 1 mM
  Fluorescence enhancement (aggregate/native IgG): 11.3 fold
[4]; Glycine, 0.5%
  Fluorescence enhancement (aggregate/native IgG): 12.5 fold
[4]; Glycine, 2%
  Fluorescence enhancement (aggregate/native IgG): 19.0 fold
[4]; Lactose, 100 mM
  Fluorescence enhancement (aggregate/native IgG): 17.5 fold
[4]; Lactose, 300 mM
  Fluorescence enhancement (aggregate/native IgG): 31.0 fold
[4]; Mannitol, 100 mM
  Fluorescence enhancement (aggregate/native IgG): 11.2 fold
[4]; Mannitol, 300 mM
  Fluorescence enhancement (aggregate/native IgG): 13.8 fold
[4]; Mannitol, 600 mM
  Fluorescence enhancement (aggregate/native IgG): 17.7 fold
[4]; Sodium Chloride, 10 mM
  Fluorescence enhancement (aggregate/native IgG): 14.4 fold
[4]; Sodium Chloride, 100 mM
  Fluorescence enhancement (aggregate/native IgG): 11.3 fold
[4]; Sodium Chloride, 1000 mM
  Fluorescence enhancement (aggregate/native IgG): 15.0 fold
[4]; Sorbitol, 100 mM
  Fluorescence enhancement (aggregate/native IgG): 17.3 fold
[4]; Sorbitol, 300 mM
  Fluorescence enhancement (aggregate/native IgG): 15.6 fold
[4]; Sorbitol, 600 mM
  Fluorescence enhancement (aggregate/native IgG): 18.7 fold
[4]; Trehalose, 100 mM
  Fluorescence enhancement (aggregate/native IgG): 14.0 fold
[4]; Trehalose, 300 mM
  Fluorescence enhancement (aggregate/native IgG): 19.4 fold
[4]; Trehalose, 600 mM
  Fluorescence enhancement (aggregate/native IgG): 18.9 fold
[4]; Tween 20, 0.01%
  Fluorescence enhancement (aggregate/native IgG): 5.5 fold
[4]; Tween 20, 0.2%
  Fluorescence enhancement (aggregate/native IgG): 2.6 fold
[4]; X100, 0.01%
  Fluorescence enhancement (aggregate/native IgG): 4.1 fold
[4]; X100, 0.2%
  Fluorescence enhancement (aggregate/native IgG): 2.6 fold
[4]; X100, 1%
  Fluorescence enhancement (aggregate/native IgG): 1.7 fold
[1]
  In the presence of aggregate: Emission wavelength: 610 nm
  In the presence of aggregate: Excitation wavelength: 515 nm
[2]
  Dye freely dissolved in buffer: Emission wavelength: 612 nm
  Dye freely dissolved in buffer: Excitation wavelength: 485 nm
